The values below come from patent EP4775582A1, “MACROCYCLIC COMPOUND AND ANTIBODY-DRUG CONJUGATE THEREOF” (Genfleet Therapeutics (Shanghai) Inc., priority 2023, dated 2025).

The IC50 is the point on the concentration scale where inhibition reaches its midpoint. What is called solubility is how much of the substance goes into solution per volume. A low value points to a poorly soluble substance. As usually defined, the Solubility is the concentration that dissolves in the medium under given conditions. A lower Solubility goes with a poorly soluble substance.

The subject of data set [1] is H441 p-ERK. The experiment in a line: Cell p-ERK assay (HTRF), NCI-H441 cells. The data set is classed as cell-based, human. The settings on record: Homo sapiens; NCI-H441 cells (KRAS G12V), 3 h incubation. The essentials: (§1)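 Phospho-ERK (T202/Y204) was measured by HTRF in lysates after 3 h compound treatment at 37 °C. Cells had been plated the previous day at 20000 per well for NCI-H441 and 10000 per well for AsPC-1. Four-parameter dose-response fitting of % inhibition gave IC50 values.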

The test system of data set [2] is AsPC-1 p-ERK. The experiment in a line: Cell p-ERK assay (HTRF), AsPC-1 cells. Type of data set: cell-based, human. The settings on record: Homo sapiens. Put shortly: as §1
(TR-FRET usually uses a lanthanide donor and a delayed reading to cut background.)

Data set [3] is described as follows: Solubility experiment (HPLC, external standard). The settings on record: 37 °C, 24 h; for solubility at 24 h: ph 7.4 medium, pH 7.4, pH 7.4 medium; for Solubility at pH 7.4 (µg/mL): pH 7.4 medium. The data set is classed as physicochemical. The protocol:
This experiment was intended to determine the solubility of the compounds in media at different pH values. The materials used in the experiment included: a pH 1.2 medium, a pH 4.5 medium, a pH 7.4 medium, and a diluent (acetonitrile/water = 50/50). 1. The preparation methods for media are as follows:
One centrifuge tube (containing about 2 mg of the test sample) was taken, 1 mL of DMSO was added to completely dissolve the test sample, and the mixture was marked as stock-1. 0.2 mL of stock-1 was transferred into a 10 mL volumetric flask, and then the 50:50 (acetonitrile/water) solution was added to bring the volume to the mark, so as to give a control solution.
Additionally, centrifuge tubes each containing about 1 mg of the test sample were taken, 1 mL of the corresponding medium solution was then added, and the tubes were shaken on a 37 °C water bath shaker for 24 h. After centrifugation for 3 times (centrifugation time: 10 min, rotation speed: 12000 rpm), 0.2 mL of the supernatants were taken, 0.8 mL of the diluent (acetonitrile/water = 50/50) was added to each tube, and the mixtures were vortexed and mixed well to give solubility samples.
The solubility samples described above and the control solution were sequentially analyzed by high performance liquid chromatography. The chromatographic conditions are as follows:
The actual concentration of the compound in each solubility sample was calculated according to an external standard method. Concentration (μg/mL) = (ASample × CControl × DSample)/(AControl)∗1000; [formula] Asample: the peak area of the target peak in the sample solution; Ccontrol: the concentration (mg/mL) of the control solution; Dsample: the dilution factor of the sample solution; Acontrol: the peak area of the target peak in the control solution.

The subject of data set [4] is NCI-H441 cells. The experiment in a line: 3D cell proliferation assay (CellTiter Glo-3D), NCI-H441. The data set is classed as cell-based, human. Conditions: Homo sapiens, 120 h, NCI-H441 cells (KRAS G12V), 2% FBS, 5 days, read-out: H441 AP IC50. Put shortly:
(§2)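 IC50 values come from four-parameter fits of inhibition rate against log compound concentration, using CellTiter-Glo luminescence read after 5 days' exposure. AsPC-1 and NCI-H441 were plated at 800 cells per well in low-serum (2% FBS) medium. Compound was dosed the day after seeding, with incubation at 37 °C, 5% CO2.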

Data set [5] has as its system AsPC-1 cells. The experiment in a line: 3D cell proliferation assay (CellTiter Glo-3D), AsPC-1. The data set is classed as cell-based, human. The settings on record: Homo sapiens, ASPC1, 120 h. Put shortly: as §2
On the technique in general: In ATP-based viability assays light output follows the ATP content of the culture.

Setting [6] is: ASPC1, 3 h, read-out: AsPC-1 p-ERK IC50(nM).

In brackets after ≈: the same amount, converted by molar mass. Where two headings read alike, the source gives them in different places.

As for `CCn1c(-c2cc(C#CCN3CCS(=O)(=O)CC3)cnc2[C@H](C)OC)c2c3cc(ccc31)-c1csc(n1)C[C@H](NC(=O)[C@@H](N)C1CCC1)C(=O)N1CCC[C@H](N1)C(=O)OCC(C)(C)C2` (atropisomer, axis not shown; (Ra)) [Compound Z16, (2S)-2-amino-2-cyclobutyl-N-((6^3S,4S,Z)-(Ra)-1^2-(5-(3-(1,1-dioxidothiomorpholino)prop-1-yn-1-yl)-2-((S)-1-methoxyethyl)pyridin-3-yl)-1^1-ethyl-10,10-dimethyl-5,7-dioxo-6^1,6^2,6^3,6^4,6^5,6^6-hexahydro-1^1H-8-oxa-2(4,2)-thiazola-1(5,3)-indola-6(1,3)-pyridazinacycloundecaphane-4-yl)acetamide], the concentration for half-maximal inhibition (IC50) in data set [1] was determined as 1.14 nM; in data set [2] (setting [6]), 1.67 nM. The compound also showed a solubility at 24 h in data set [3] of 15 µg/mL (≈ 16.4 µM).

In the case of `CCn1c(-c2cc(C#CCN3CCC(C(=O)NCCO)CC3)cnc2[C@H](C)OC)c2c3cc(ccc31)-c1csc(n1)C[C@H](NC(=O)[C@H]1[C@@H]3COC[C@@H]31)C(=O)N1CCC[C@H](N1)C(=O)OCC(C)(C)C2` (atropisomer, axis not shown; (Ra)) [Compound Z21, 1-(3-(5-((6^3S,4S,Z)-4-((1R,5S,6r)-3-oxabicyclo[3.1.0]hexane-6-carboxamido)-1^1-ethyl-10,10-dimethyl-5,7-dioxo-6^1,6^2,6^3,6^4,6^5,6^6-hexahydro-1^1H-8-oxa-2(4,2)-thiazola-1(5,3)-indola-6(1,3)-pyridazinacycloundecaphane-1^2-yl)-6-(Ra)-((S)-1-methoxyethyl)pyridin-3-yl)prop-2-yn-1-yl)-N-(2-hydroxyethyl)piperidine-4-carboxamide], the half-inhibitory concentration (IC50) in data set [1] worked out at 0.51 nM; in data set [2] (ASPC1, AsPC-1 cells (KRAS G12D), 3 h incubation, read-out: AsPC-1 p-ERK IC50), 1.68 nM; in data set [4] it was 0.41 nM; in data set [5] (AsPC-1 cells (KRAS G12D), 3D, 2% FBS, 5 days, read-out: AsPC-1 AP IC50), 1.11 nM. In addition, the concentration in solution in data set [3] (solubility at 24 h) came to 9.71 µg/mL (≈ 10.2 µM).

Take `CO[C@@H](C)c1ncc(C#CCN2CCS(=O)(=O)CC2)cc1-c1c2c3cc(ccc3n1CCCO)-c1csc(n1)C[C@H](NC(=O)[C@H]1[C@@H]3COC[C@@H]31)C(=O)N1CCC[C@H](N1)C(=O)OCC(C)(C)C2` (atropisomer, axis not shown; (Ra)) [Compound Z24-1, (1R,5S,6r)-N-((6^3S,4S,Z)-1^2-(5-(3-(1,1-dioxidothiomorpholino)prop-1-yn-1-yl)-(Ra)-2-((S)-1-methoxyethyl)-pyridin-3-yl)-1^1-(3-hydroxypropyl)-10,10-dimethyl-5,7-dioxo-6^1,6^2,6^3,6^4,6^5,6^6-hexahydro-1^1H-8-oxa-2(4,2)-thiazola-1(5,3)-indola-6(1,3)-pyridazinacycloundecaphane-4-yl)-3-oxabicyclo[3.1.0]hexane-6-carboxamide]: the concentration for half-maximal inhibition (IC50) in data set [1] worked out at 3.76 nM; in data set [2] (setting [6]) it was 2.64 nM; in data set [4], 1.77 nM; in data set [5] (read-out: AsPC-1 AP IC50(nM)), 1.73 nM. In addition, the solubility at 24 h in data set [3] worked out at 12.3 µg/mL (≈ 13.1 µM).

Take `CCn1c(-c2cc(C#CCN3CCS(=N)(=O)CC3)cnc2[C@H](C)OC)c2c3cc(ccc31)-c1csc(n1)C[C@H](NC(=O)[C@H]1[C@@H]3COC[C@@H]31)C(=O)N1CCC[C@H](N1)C(=O)OCC(C)(C)C2` (atropisomer, axis not shown; (Ra)) [Compound Z27]: the IC50 in data set [1] turned out to be 0.64 nM; in data set [2] (setting [6]) it was 0.51 nM; in data set [4] it was 0.44 nM; in data set [5] (read-out: AsPC-1 AP IC50(nM)) it was 0.78 nM. The same compound came in with a solubility at 24 h in data set [3] of 20.8 µg/mL (≈ 22.8 µM).

On to `COCCn1c(-c2cc(C#CCN3CCN(C(=O)CO)CC3)cnc2[C@H](C)OC)c2c3cc(ccc31)-c1csc(n1)C[C@H](NC(=O)[C@H]1[C@@H]3COC[C@@H]31)C(=O)N1CCC[C@H](N1)C(=O)OCC(C)(C)C2` (atropisomer, axis not shown; (Sa)) [Compound Z31-2, (1R,5S,6r)-N-((6^3S,4S,Z)-(Sa)-1^2-(5-(3-(4-(2-hydroxyacetyl)piperazin-1-yl)prop-1-yn-1-yl)-2-((S)-1-methoxyethyl)pyridin-3-yl)-1^1-(methoxyethyl)-10,10-dimethyl-5,7-dioxo-6^1,6^2,6^3,6^4,6^5,6^6-hexahydro-1^1H-8-oxa-2(4,2)-thiazola-1(5,3)-indola-6(1,3)-pyridazinacycloundecaphane-4-yl)-3-oxabicyclo[3.1.0]hexane-6-carboxamide], for which, in data set [3], the concentration in solution (solubility at 24 h) was 22 µg/mL (≈ 23.1 µM).

`COCCn1c(-c2cc(C#CCN3CCN(C(=O)CO)CC3)c[n+]([O-])c2[C@H](C)OC)c2c3cc(ccc31)-c1csc(n1)C[C@H](NC(=O)[C@H]1[C@@H]3COC[C@@H]31)C(=O)N1CCC[C@H](N1)C(=O)OCC(C)(C)C2` (atropisomer, axis not shown; (Sa)) [Compound Z38-2, (Sa)-3-((6^3S,4S,Z)-4-((1R,5S,6r)-3-oxabicyclo[3.1.0]hexane-6-carboxamido)-1^1-(2-methoxyethyl)-10,10-dimethyl-5,7-dioxo-6^1,6^2,6^3,6^4,6^5,6^6-hexahydro-11H-8-oxa-2(4,2)-thiazola-1(5,3)-indola-6(1,3)-pyridazinacycloundecaphane-1^2-yl)-5-(3-(4-(2-hydroxyacetyl)piperazin-1-yl)prop-1-yn-1-yl)-2-((S)-1-methoxyethyl)pyridine-1-oxide] gave a solubility at 24 h in data set [3] of 176 µg/mL (≈ 182 µM).

As for `CCn1c(-c2cc(C#CCN3CCC(C#N)(CO)CC3)c[n+]([O-])c2[C@H](C)OC)c2c3cc(ccc31)-c1csc(n1)C[C@H](NC(=O)[C@H]1[C@H](C)[C@@H]1C)C(=O)N1CCC[C@H](N1)C(=O)OCC(C)(C)C2` (atropisomer, axis not shown; (Sa)) [Compound Z45-2, 5-(3-(4-cyano-4-(hydroxymethyl)piperidin-1-yl)prop-1-yn-1-yl)-(Sa)-3-((6^3S,4S,Z)-4-((1r,2R,3S)-2,3-dimethylcyclopropane-1-carboxamido)-1^1-ethyl-10,10-dimethyl-5,7-dioxo-6^1,6^2,6^3,6^4,6^5,6^6-hexahydro-1^1H-8-oxa-2(4,2)-thiazola-1(5,3)-indola-6(1,3)-pyridazinacycloundecaphane-1^2-yl)-2-((S)-1-methoxyethyl)pyridine 1-oxide], the “Solubility at pH 7.4 (µg/mL)” value in data set [3] (1440 min) turned out to be 8.42 µg/mL.

`COCCn1c(-c2cc(C#CCN3CCN(C(=O)CO)CC3)cnc2[C@H](C)OC)c2c3cc(ccc31)-c1csc(n1)C[C@H](NC(=O)[C@H]1[C@H](C)[C@@H]1C)C(=O)N1CCC[C@H](N1)C(=O)OCC(C)(C)C2` (atropisomer, axis not shown; (Sa)) [Compound Z63-2, (2R,3S)-N-((6^3S,4S,Z)-1^2-(5-(3-(4-(2-hydroxyacetyl)piperazin-1-yl)prop-1-yn-1-yl)-(Sa)-2-((S)-1-methoxyethyl)pyridin-3-yl)-1^1-(2-methoxyethyl)-10,10-dimethyl-5,7-dioxo-6^1,6^2,6^3,6^4,6^5,6^6-hexahydro-1^1H-8-oxa-2(4,2)-thiazola-1(5,3)-indola-6(1,3)-pyridazinacycloundecaphane-4-yl)-2,3-dimethylcyclopropane-1-carboxamide]: in data set [3] (1440 min), the “Solubility at pH 7.4 (µg/mL)” value is recorded as 15.37 µg/mL.

On to `CCn1c(-c2cc(C#CCN3CCS(=O)(=O)CC3)cnc2[C@H](C)NC)c2c3cc(ccc31)-c1csc(n1)C[C@H](NC(=O)[C@H]1[C@H](C)[C@@H]1C)C(=O)N1CCC[C@H](N1)C(=O)OCC(C)(C)C2` (atropisomer, axis not shown; (Sa)) [Compound Z66-1, (1r,2R,3S)-N-((6^3S,4S,Z)-(Sa)-1^2-(5-(3-(1,1-dioxidothiomorpholino)prop-1-yn-1-yl)-2-((S)-1-(methylamino)ethyl)pyridin-3-yl)-11-ethyl-10,10-dimethyl-5,7-dioxo-6^1,6^2,6^3,6^4,6^5,6^6-hexahydro-1^1H-8-oxa-2(4,2)-thiazola-1(5,3)-indola-6(1,3)-pyridazinacycloundecaphane-4-yl)-2,3-dimethylcyclopropane-1-carboxamide], for which, in data set [3], the “Solubility at pH 7.4 (µg/mL)” value came to 158.5 µg/mL.
